Laboratory results published in paper PMC3893112 (Journal of medicinal chemistry, 2013).

Columns and labels:
[1] = biological target: T1, human δ opioid receptor over-expressed in CHO cells (Homo sapiens, UniProt P41143); test: [35S]GTPγS binding assay, agonist mode, δ; assay type: biochemical; conditions: for Agonist activity at the δ receptor (in words): [35S]GTPγS
[2] = biological target: T1, human δ opioid receptor over-expressed in CHO cells; test: Inhibition of DPDPE-stimulated [35S]GTPγS binding; assay type: biochemical; conditions: for Antagonist δ, DPDPE Ke: vs DPDPE-stimulated [35S]GTPγS binding
[3] = biological target: T2, human κ opioid receptor over-expressed in CHO cells (Homo sapiens, UniProt P41145); test: Inhibition of κ agonist-stimulated [35S]GTPγS binding; assay type: biochemical; conditions: for Antagonist κ, U50,488 Ke: vs κ agonist-stimulated [35S]GTPγS binding
T2 sequence (P41145 whole entry): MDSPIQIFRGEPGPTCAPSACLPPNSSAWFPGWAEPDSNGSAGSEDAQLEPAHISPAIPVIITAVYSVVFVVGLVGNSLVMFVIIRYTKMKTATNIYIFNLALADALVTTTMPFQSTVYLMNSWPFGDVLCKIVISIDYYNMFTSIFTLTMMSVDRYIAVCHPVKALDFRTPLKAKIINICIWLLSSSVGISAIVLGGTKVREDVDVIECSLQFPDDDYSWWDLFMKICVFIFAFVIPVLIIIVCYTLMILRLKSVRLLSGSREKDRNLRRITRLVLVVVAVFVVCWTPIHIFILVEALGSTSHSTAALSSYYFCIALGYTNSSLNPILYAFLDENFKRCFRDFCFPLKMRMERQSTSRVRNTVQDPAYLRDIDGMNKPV

human MOR = human MOR (Homo sapiens, UniProt P35372); test: Competition radioligand binding, [3H]DAMGO; conditions: Ki vs Kd of DAMGO
Chain of human MOR (P35372 whole entry): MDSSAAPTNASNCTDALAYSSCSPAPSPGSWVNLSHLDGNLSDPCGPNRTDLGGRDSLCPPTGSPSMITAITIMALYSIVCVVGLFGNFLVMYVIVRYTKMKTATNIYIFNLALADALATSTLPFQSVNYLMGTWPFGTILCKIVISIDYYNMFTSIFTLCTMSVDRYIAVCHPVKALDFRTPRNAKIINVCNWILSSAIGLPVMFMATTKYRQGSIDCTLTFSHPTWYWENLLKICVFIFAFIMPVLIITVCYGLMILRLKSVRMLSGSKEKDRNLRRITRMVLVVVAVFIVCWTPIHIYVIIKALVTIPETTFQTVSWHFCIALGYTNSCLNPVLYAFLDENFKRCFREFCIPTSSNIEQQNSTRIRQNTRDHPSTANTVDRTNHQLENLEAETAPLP

[4] = biological target: T2, human κ opioid receptor over-expressed in CHO cells; test: [35S]GTPγS binding assay, agonist mode, κ; assay type: biochemical
[5] = biological target: human μ opioid receptor over-expressed in CHO cells (Homo sapiens, UniProt P35372); test: [35S]GTPγS binding assay, agonist mode, μ; assay type: biochemical
Chain of human μ opioid receptor over-expressed in CHO cells (P35372 whole entry): as above

T1 sequence (P41143 whole entry): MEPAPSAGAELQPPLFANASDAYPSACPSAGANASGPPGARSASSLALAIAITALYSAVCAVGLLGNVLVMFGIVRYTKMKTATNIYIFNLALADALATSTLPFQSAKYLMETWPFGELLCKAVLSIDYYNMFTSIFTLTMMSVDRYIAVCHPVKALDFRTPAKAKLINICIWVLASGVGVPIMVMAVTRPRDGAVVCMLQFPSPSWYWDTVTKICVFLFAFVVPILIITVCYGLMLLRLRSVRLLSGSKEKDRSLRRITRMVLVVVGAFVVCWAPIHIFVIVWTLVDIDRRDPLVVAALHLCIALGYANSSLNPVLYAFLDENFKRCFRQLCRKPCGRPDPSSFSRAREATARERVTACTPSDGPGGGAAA

Row | SMILES | EC50 [1] | Agonist activity at the δ receptor (in words) [1] | Kb [2] | Antagonist δ, DPDPE Ke [2] | Kb [3] | Antagonist κ, U50,488 Ke [3] | Affinity for MOR compared with DAMGO (human MOR) | EC50 [4] | IC50 [5] | EC50 [5]
1 | CCCN[C@H]1C[C@H]2C[C@@](c3cccc(O)c3)(C1)[C@H](C)CN2CCCc1ccccc1.Cl.Cl [Compound 5d, 5-(3-Hydroxyphenyl)-4-methyl-2-(3-phenylprop-1-yl)-7-propylamino-2-azabicyclo[3.3.1]nononane] | > 5000 nM | no agonist activity | 69.4 ± 16 nM | 69.4 nM |  |  |  |  |  | 
2 | CN[C@H]1C[C@H]2C[C@@](c3cccc(O)c3)(C1)[C@H](C)CN2CCCc1ccccc1.Cl.Cl [Compound 5b, 5-(3-Hydroxyphenyl)-4-methyl-7-methylamino-2-(3-phenylprop-1-yl)-2-azabicyclo[3.3.1]nononane] |  |  |  |  | 43.8 ± 8 nM | 43.8 nM | higher affinity for MOR than DAMGO | > 5000 nM |  | 
3 | C[C@@H]1CN(CCCc2ccccc2)[C@H]2C[C@H](N(C)C)C[C@]1(c1cccc(O)c1)C2.Cl.Cl [Compound 5f, 7-Dimethylamino-5-(3-hydroxyphenyl)-4-methyl-2-(3-phenylprop-1-yl)-2-azabicyclo[3.3.1]nononane] |  |  |  |  | 176 ± 50 nM | 176 nM | higher affinity for MOR than DAMGO | > 5000 nM |  | 
4 | C[C@@H]1CN(CCCc2ccccc2)[C@H]2C[C@H](NCC3CC3)C[C@]1(c1cccc(O)c1)C2.Cl.Cl [Compound 5e, 7-(N-Cyclopropylmethylamino)-5-(3-hydroxyphenyl)-4-methyl-2-(3-phenylprop-1-yl)-2-azabicyclo[3.3.1]nononane] | > 5000 nM |  |  |  |  |  |  | > 5000 nM |  | 
5 | C[C@H]1CN(CCCc2ccccc2)[C@@H]2C[C@@H](N)C[C@@]1(c1cccc(O)c1)C2 [Compound 6, (1S,4R,5R,7S)-7-aminomorphan] | > 5000 nM |  | 25.2 ± 8 nM | 25.2 nM | 21.7 ± 7 nM | 21.7 nM |  | > 5000 nM | 20.6 nM | 
6 | C[C@@H]1CN(CCCc2ccccc2)[C@H]2C[C@H](N(C)CC3CC3)C[C@]1(c1cccc(O)c1)C2.Cl.Cl [Compound 5h, 7-(N-Cyclopropylmethylmethylamino)-5-(3-hydroxyphenyl)-4-methyl-2-(3-phenylprop-1-yl)-2-azabicyclo[3.3.1]nononane] |  |  |  |  |  |  | higher affinity for MOR than DAMGO |  |  | 
7 | C[C@@H]1CN(CCCc2ccccc2)[C@@H]2CCC[C@]1(c1cccc(O)c1)C2.Cl [Compound 4, 3-[(1R,4S,5S)-4-Methyl-2-(3-phenylpropyl)-2-azabicyclo[3.3.1]non-5-yl]phenol] | > 5000 nM |  |  |  |  |  |  | > 5000 nM |  | > 5000 nM
8 | CCN[C@H]1C[C@H]2C[C@@](c3cccc(O)c3)(C1)[C@H](C)CN2CCCc1ccccc1.Cl.Cl [Compound 5c, 7-Ethylamino-5-(3-hydroxyphenyl)-4-methyl-2-(3-phenlylprop-1-yl)-2-azabicyclo[3.3.1]nononane] | > 5000 nM | complete loss of agonist activity | 230 ± 93 nM | 230 nM | 60.8 ± 19 nM | 60.8 nM |  | > 5000 nM |  | 
9 | C[C@@H]1CN(CCCc2ccccc2)[C@H]2C[C@H](N)C[C@]1(c1cccc(O)c1)C2.Cl.Cl [Compound 5a, (−)-5-(3-hydroxyphenyl)-4-methyl-2-(3-phenylpropyl)-2-azabicyclo[3.3.1]nonan-7-amine] |  |  |  |  | 10.1 ± 3 nM | 10.1 nM |  | > 5000 nM |  | 
10 | CCN(C)[C@H]1C[C@H]2C[C@@](c3cccc(O)c3)(C1)[C@H](C)CN2CCCc1ccccc1 [Compound 5g, 7-(N-Ethylmethylamino)-5-(3-hydroxyphenyl)-4-methyl-2-(3-phenylprop-1-yl)-2 azabicyclo[3.3.1]nononane] | > 5000 nM |  | > 5000 nM |  | 93 ± 29 nM |  |  | > 5000 nM |  | 
